Source: article PMC12567244, “Innovative Amino-Functionalization of Pyrido[2,3-d]pyrimidine Scaffolds for Broad Therapeutic Applications Supported by Computational Analyses” (Pharmaceuticals, 2025)
Converted amounts (≈) assume the structure as drawn. “And” between values parts separate entries of the source, which are not always exact repeats. Equal entries are not always repeated.

Columns and labels:
[1] = tested on: E.coli ATCC25915; assay: Well diffusion inhibition zone, E. coli; details: Escherichia coli, ATCC25915, read-out: Inhibition zone E.coli ATCC25915
[2] = tested on: S. aureus ATCC25923; assay: Well diffusion inhibition zone, S. aureus; details: Staphylococcus aureus, ATCC25923, read-out: Inhibition zone S. aureus ATCC25923
[3] = tested on: E. faecalis ATCC29212; assay: Well diffusion inhibition zone, E. faecalis; details: Enterococcus faecalis, ATCC29212, read-out: Inhibition zone E. faecalis ATCC29212
[4] = tested on: P. aeruginosa ATCC10145; assay: Well diffusion inhibition zone, P. aeruginosa; details: Pseudomonas aeruginosa, ATCC10145, read-out: Inhibition zone P. aeruginosa ATCC10145
[5] = in vitro; details: human, WI-38 normal lung fibroblast cells
[6] = tested on: cervical carcinoma (HeLa); assay: MTT cytotoxicity assay, HeLa; details: for SI HeLa: IC50 WI-38 / IC50 HeLa; for IC50: read-out: IC50 HeLa, MTT, mean ± SD of three measurements
[7] = tested on: breast carcinoma (MCF-7); assay: MTT cytotoxicity assay, MCF-7; details: for SI MCF-7: IC50 WI-38 / IC50 MCF-7; for IC50: read-out: IC50 MCF-7, MTT, mean ± SD of three measurements
[8] = tested on: liver carcinoma (HepG-2); assay: MTT cytotoxicity assay, HepG-2; details: for SI HepG-2: IC50 WI-38 / IC50 HepG-2; for IC50: read-out: IC50 HepG-2, MTT, mean ± SD of three measurements
[9] = tested on: HeLa, HepG-2, and MCF-7; assay: MTT cytotoxicity, range over the cancer cell panel; details: read-out: IC50 across HeLa, HepG-2 and MCF-7; range over all examined cancer cell lines
[10] = tested on: E. coli ATCC25915; assay: MIC, two-fold serial dilution, E. coli; format: cell-based; details: Escherichia coli
[11] = tested on: S. aureus ATCC25923; assay: MIC, two-fold serial dilution, S. aureus; format: cell-based, Staphylococcus aureus; details: for MIC: Staphylococcus aureus, ATCC25923
[12] = tested on: E. faecalis ATCC29212; assay: MIC, two-fold serial dilution, E. faecalis; format: cell-based, Enterococcus faecalis; details: for MIC: Enterococcus faecalis, ATCC29212
[13] = tested on: P. aeruginosa ATCC10145; assay: MIC, two-fold serial dilution, P. aeruginosa; format: cell-based; details: Pseudomonas aeruginosa

Compound | IC50 at 48 h [5] [µM] | SI HeLa [6] | IC50 [6] [µM] | SI MCF-7 [7] | IC50 [7] [µM] | SI HepG-2 [8] | IC50 [8] [µM] | IC50 [9] | zone of inhibition at 100 µg/mL [4] [mm] | zone of inhibition at 100 µg/mL [1] [mm] | further results
O=C(O)c1cn(C2CC2)c2cc(N3CCNCC3)c(F)cc2c1=O [Ciprofloxacin, reference compound] |  |  |  |  |  |  |  |  |  |  | zone of inhibition at 50 µg/mL [1]: 10 mm; zone of inhibition at 50 µg/mL [2]: 8 ± 0.15 mm; zone of inhibition at 50 µg/mL [3]: 7.5 mm; zone of inhibition at 50 µg/mL [4]: 12.3 ± 0.4 mm
Cn1c(=O)c2c(-c3ccc(Cl)cc3)c(C(=O)Nc3n[nH]cc3NN)c(N)nc2n(C)c1=O [Compound 3, 7-Amino-5-(4-chlorophenyl)-N-(4-hydrazinyl-1H-pyrazol-3-yl)-1,3-dimethyl-2,4-dioxo-1,2,3,4-tetrahydropyrido[2,3-d]pyrimidine-6-carboxamide] | 52.8 ± 2.9 | 3.73 | 14.1 ± 1.2 | 2.70 | 19.5 ± 1.3 | 2.46 | 21.4 ± 1.5 | 14 to 26 µM |  |  | 
Cn1c(=O)c2c(-c3ccc(Cl)cc3)c(C(=O)NC(=S)NN)c(N)nc2n(C)c1=O [Compound 5, 7-Amino-5-(4-chlorophenyl)-N-(hydrazinecarbonothioyl)-1,3-dimethyl-2,4-dioxo-1,2,3,4-tetrahydropyrido[2,3-d]pyrimidine-6-carboxamide] | 35.2 ± 2.2 | 0.39 | 89.4 ± 4.6 | 0.41 | 84.1 ± 4.2 |  | > 100 | > 84 µM |  |  | 
Cn1c(=O)c2c(-c3ccc(Cl)cc3)c(-c3nn(CCc4nn[nH]n4)c(=S)o3)c(N)nc2n(C)c1=O [Compound 10, 6-{4-[2-(2H-Tetrazol-5-yl)ethyl]-5-thioxo-4,5-dihydro-1,3,4-oxadiazol-2-yl}-7-amino-5-(4-chlorophenyl)-1,3-dimethylpyrido[2,3-d]pyrimidine-2,4(1H,3H)-dione] | 37.9 ± 2.4 | 0.77 | 48.7 ± 2.8 | 0.71 | 53.1 ± 3.1 | 0.54 | 69.4 ± 3.7 | > 50 µM | 6 |  | 
Cc1cc(C)n(-c2c[nH]nc2NC(=O)c2c(N)nc3c(c2-c2ccc(Cl)cc2)c(=O)n(C)c(=O)n3C)n1 [Compound 13, 7-Amino-5-(4-chlorophenyl)-N-(3,5-dimethyl-1′H-[1,4′-bipyrazol]-3′-yl)-1,3-dimethyl-2,4-dioxo-1,2,3,4-tetrahydropyrido[2,3-d]pyrimidine-6-carboxamide] | 10.7 ± 0.8 | 0.37 | 28.7 ± 1.9 | 0.29 | 36.1 ± 2.2 | 0.32 | 32.6 ± 2.1 | 28 to 36 µM | 16.8 | 14.5 ± 0.15 | MIC [10]: 50 µg/mL (≈ 96.2 µM); MIC S. aureus ATCC25923 [11]: >100 µg/mL; MIC [11]: > 100 µg/mL; MIC E. faecalis ATCC29212 [12]: >100 µg/mL; MIC [12]: > 100 µg/mL; MIC [13]: 100 µg/mL (≈ 192 µM)
CC1=NN(C(=S)NC(=O)c2c(N)nc3c(c2-c2ccc(Cl)cc2)c(=O)n(C)c(=O)n3C)C(=O)C1 [Compound 16, 7-Amino-5-(4-chlorophenyl)-1,3-dimethyl-N-(3-methyl-5-oxo-4,5-dihydro-1H-pyrazole-1-carbonothioyl)-2,4-dioxo-1,2,3,4-tetrahydropyrido[2,3-d]pyrimidine-6-carboxamide] | 57.6 ± 3.2 | 1.65 | 34.8 ± 2.1 | 1.34 | 42.9 ± 2.5 | 0.88 | 65.1 ± 3.4 | 35 to 65 µM | 17.6 | 18.5 ± 0.15 | MIC [10]: 50 µg/mL (≈ 100 µM); MIC [11]: 100 µg/mL (≈ 200 µM); MIC [12]: 100 µg/mL (≈ 200 µM); zone of inhibition at 100 µg/mL [2]: 4.5 ± 0.1 mm; zone of inhibition at 100 µg/mL [3]: 4 ± 0.6 mm
C#Cc1cccc(Nc2ncnc3cc(OCCOC)c(OCCOC)cc23)c1 [Erlotinib, erlotinib, reference compound] | 78.3 ± 3.9 |  | 8.04 ± 0.5 |  | 7.26 ± 0.3 |  | 9.18 ± 0.6 |  |  |  | 

Second part, led by results:

IC50 at 48 h [5] [µM] | Compound | SI HeLa [6] | IC50 [6] [µM] | SI MCF-7 [7] | IC50 [7] [µM] | SI HepG-2 [8] | IC50 [8] [µM] | IC50 [9] | zone of inhibition at 100 µg/mL [4] [mm] | zone of inhibition at 100 µg/mL [1] [mm] | further results
46.1 ± 2.7 | Cn1c(=O)c2c(-c3ccc(Cl)cc3)c(-c3nnc(S)n3N)c(N)nc2n(C)c1=O [Compound 4, 7-Amino-6-(4-amino-5-mercapto-4H-1,2,4-triazol-3-yl)-5-(4-chlorophenyl)-1,3-dimethylpyrido[2,3-d]pyrimidine-2,4(1H,3H)-dione] | 2.43 | 18.9 ± 1.4 | 1.76 | 26.1 ± 1.7 | 1.99 | 23.1 ± 1.6 | 14 to 26 µM | 6 |  | 
38.4 ± 2.6 | Cc1cc(C)n(C(=O)c2c(N)nc3c(c2-c2ccc(Cl)cc2)c(=O)n(C)c(=O)n3C)n1 [Compound 6, 7-Amino-5-(4-chlorophenyl)-6-(3,5-dimethyl-1H-pyrazole-1-carbonyl)-1,3-dimethylpyrido[2,3-d]pyrimidine-2,4(1H,3H)-dione] | 1.54 | 24.8 ± 1.6 | 1.20 | 32 ± 1.9 | 1.29 | 29.7 ± 1.8 | 24 to 32 µM |  |  | 
26.8 ± 1.8 | Cn1c(=O)c2c(-c3ccc(Cl)cc3)c(-c3nnc(S)o3)c(N)nc2n(C)c1=O [Compound 7, 7-Amino-5-(4-chlorophenyl)-6-(5-mercapto-1,3,4-oxadiazol-2-yl)-1,3-dimethylpyrido[2,3-d]pyrimidine-2,4(1H,3H)-dione] | 2.75 | 9.72 ± 0.9 | 2.30 | 11.6 ± 0.9 | 1.52 | 17.5 ± 1.3 | 9.72 to 17.5 µM |  |  | 
25.2 ± 1.8 | Cn1c(=O)c2c(-c3ccc(Cl)cc3)c(C3=NN=C(N)C3C#N)c(N)nc2n(C)c1=O (stereo not shown) [Compound 8, 3-Amino-5-[7-amino-5-(4-chlorophenyl)-1,3-dimethyl-2,4-dioxo-1,2,3,4-tetrahydropyrido[2,3-d]pyrimidin-6-yl]-4H-pyrazole-4-carbonitrile] | 0.35 | 71.4 ± 3.8 | 0.31 | 79.3 ± 3.9 | 0.30 | 82.8 ± 4.1 | > 50 µM and 62 to 88 µM |  |  | 
> 100 | Cn1c(=O)c2c(-c3ccc(Cl)cc3)c(-c3nn(CCC#N)c(=S)o3)c(N)nc2n(C)c1=O [Compound 9, 3-{5-[7-Amino-5-(4-chlorophenyl)-1,3-dimethyl-2,4-dioxo-1,2,3,4-tetrahydropyrido [2,3-d]pyrimidin-6-yl]-2-thioxo-1,3,4-oxadiazol-3(2H)-yl}propanenitrile] |  | 62.7 ± 3.5 |  | 67.8 ± 3.6 |  | 88.6 ± 4.4 | > 50 µM and 62 to 88 µM | 7.6 |  | 
> 100 | Cn1c(=O)c2c(-c3ccc(Cl)cc3)c(C3=NN=C4N=CNC(=O)C43)c(N)nc2n(C)c1=O (stereo not shown) [Compound 11, 7-Amino-5-(4-chlorophenyl)-1,3-dimethyl-6-(4-oxo-3a,5-dihydro-4H-pyrazolo [3,4-d]pyrimidin-3-yl)pyrido[2,3-d]pyrimidine-2,4(1H,3H)-dione] |  | 56.4 ± 3.2 |  | 60.6 ± 3.5 |  | 73.2 ± 3.8 | > 50 µM | 8.6 | 2 ± 0.1 | 
22.5 ± 1.6 | Cn1c(=O)c2c(-c3ccc(Cl)cc3)c(-c3nnc4n3N=C(Cl)CS4)c(N)nc2n(C)c1=O [Compound 14, 7-Amino-6-(6-chloro-7H-[1,2,4]triazolo [3,4-b][1,3,4]thiadiazin-3-yl)-5-(4-chlorophenyl)-1,3-dimethylpyrido[2,3-d]pyrimidine-2,4(1H,3H)-dione] | 0.32 | 68.7 ± 3.6 | 0.29 | 75.1 ± 3.8 | 0.23 | 93.7 ± 4.8 | > 50 µM and 69 to 94 µM | 9.5 | 8.15 ± 0.3 | zone of inhibition at 100 µg/mL [2]: 3 ± 0.05 mm
41.2 ± 2.5 | Cn1c(=O)c2c(-c3ccc(Cl)cc3)c(-c3nnc4sc(S)nn34)c(N)nc2n(C)c1=O [Compound 15, 7-Amino-5-(4-chlorophenyl)-6-(6-mercapto-[1,2,4]triazolo[3,4-b][1,3,4]thiadiazol-3-yl)-1,3-dimethylpyrido[2,3-d]pyrimidine-2,4(1H,3H)-dione] | 1.03 | 39.8 ± 2.4 | 0.86 | 47.5 ± 2.8 | 0.79 | 51.8 ± 2.9 | 40 to 52 µM | 10.3 | 7.5 ± 0.15 | 
